# Source: patent US7632812B2, “Methods to stimulate insulin production by pancreatic β-cells” (Massachusetts General Hospital, priority 1999, dated 2009)
# Tests used:
# [1] = test system: INS-1 cells; assay: Insulin secretion by INS-1 cells into medium over 24 h (Rat Insulin RIA); format: cell-based; settings: INS-1 cells transfected with pEV control and insulin promoter-reporter construct; 24 h exposure; increasing amounts; FIG. 15
# Experimental: (§1) This potential role was examined with the rat INS-1 cell line, which intrinsically expresses Ihh and Dhh proteins (FIGS. 13 and 14). […] Insulin levels were measured with a Rat Insulin RIA Kit (LINCO Research, Inc., St. Louis, Mo.) using the protocol outlined by the manufacturer. […] After 24 hours of incubation, 500 μL aliquots of culture medium were removed and serially diluted for the assay. Culture medium that was not exposed to cells was tested as a negative control for the assay. In some experiments, transfected cells were assessed for insulin secretion rates. In these experiments, after incubation with lipofectamine and DNA, the transfected cells received fresh culture medium and 24-hour insulin secretion rates were assessed. Given that the cells intrinsically express hedgehog, the cells were also treated with cyclopamine in the absence of any transfection. […] Cells were then rinsed in phosphate buffered saline and lysed in 0.1N HCl in 100% ethanol at 4° C. The lysate was incubated overnight at−70° C. The thawed lysate was vortexed and subjected to brief centrifugation at 14,000 rpm. The resulting supernatant was dried under vacuum, resuspended in […] Assay buffer, and serially diluted for insulin measurements with the Rat Insulin RIA Kit.
# [2] = test system: insulin mRNA in INS-1 cells; assay: Northern blot of insulin mRNA levels in INS-1 cells; format: cell-based, rat; settings: 20 μM, Northern RNA blots, FIG. 17
# Experimental: For isolation of total RNA, cells were washed in phosphate buffered saline and lysed with Tri-Reagent (SIGMA, St-Louis, Mo.). Total cellular RNA was prepared according to the manufacturer's protocol. For each sample, 4 μg total RNA was separated by electrophoresis on a denaturing gel consisting of 1× MOPS, 1.2% agarose and 1% formaldehyde. Samples were transferred using standard methods (Ausubel et al., Short Protocols in Molecular Biology, Third Edition, John Wiley and Sons, Inc., 1995.) to nylon membranes (Hybond-N+, Amersham Pharmacia Biotech, Inc., Piscataway, N.J.) and crosslinked with ultraviolet light (UV Stratalinker 1800, Stratagene, La Jolla, Calif.). The membranes were prehybridized in Rapid-Hyb Buffer (Amersham Pharmacia Biotech, Inc.) prior to hybridization for 4 hours at 65° C. with radiolabeled probes. Insulin transcripts were probed with a 231 nucleotide fragment (spanning nucleotides 349 to 580 of the rat insulin I gene, Genbank acc. no. V01242) of rat insulin I cDNA. […] For quantitation, autoradiograms were scanned with a Computing Densitometer (Molecular Dynamics, Sunnyvale, Calif.) and individual band intensities were determined with ImageQuant software (Molecular Dynamics, Sunnyvale, Calif.). […]
# [3] = test system: rat insulin I promoter; assay: Rat insulin I promoter luciferase reporter (-410 INS-luc) in transfected INS-1 cells; format: cell-based; settings: absence of the Shh expression construct, dose-dependent, FIG. 19
# Experimental: To determine whether hedgehog regulation of insulin production occurs at the transcriptional level, INS-1 cells were transiently transfected with 5-6 μg total DNA and 10 μL Lipofectamine according to the manufacturer's instructions (GIBCO BRL Life Technologies, Inc., Gaithersburg, Md.) with increasing concentrations of Shh expression vector pSHH in the presence of a rat insulin I promoter-reporter construct −410 INS-luc. […] The plasmid −410 INS-LUC consists of a fragment of the rat insulin I gene promoter that spans nucleotides −410 to +49 inserted into the pXP2 vector that includes firefly luciferase reporter sequences (Lu, M., et al, 1997, J. Biol. Chem.: 272:28349). […] For luciferase assays, cells were harvested 24 hours after transfection with 1× Reporter Lysis Buffer (Promega, Madison, Wis.). Luciferase assays were conducted with the Luciferase Assay System as outlined by the manufacturer (Promega, Madison, Wis.). Luciferase activities were normalized for extract protein concentrations as determined by the Bio-Rad Protein Assay (Bio-Rad Laboratories, Hercules, Calif.), a modified Bradford assay (Bradford, M., 1976, Anal. Biochem., 72:248).
# [4] = test system: INS-1 cells; assay: Cellular insulin content of INS-1 cells (Rat Insulin RIA of lysate); format: cell-based; settings: untransfected INS-1 cells, 20 μM, 24 hours; FIG. 16
# Experimental: as §1
smiles,measurement,setting,value
CC1=C2C[C@H]3[C@@H](CC=C4C[C@@H](O)CC[C@@]43C)[C@@H]2CC[C@]12O[C@@H]1C[C@H](C)CN[C@H]1[C@H]2C [cyclopamine],effect on insulin secretion,[1],increasingly inhibited insulin secretion
same,levels of insulin mRNA,[2],decrease in the levels of insulin mRNA
same,inhibition of basal insulin promoter activity,[3],up to 90%
same,reduction in cellular insulin content,[4],40%
